One experiment addresses T1, JAK3 tyrosine kinase (Homo sapiens, UniProt P52333).
T1 construct: purchased Carnabioscience Co
T1 sequence (P52333 1-1124): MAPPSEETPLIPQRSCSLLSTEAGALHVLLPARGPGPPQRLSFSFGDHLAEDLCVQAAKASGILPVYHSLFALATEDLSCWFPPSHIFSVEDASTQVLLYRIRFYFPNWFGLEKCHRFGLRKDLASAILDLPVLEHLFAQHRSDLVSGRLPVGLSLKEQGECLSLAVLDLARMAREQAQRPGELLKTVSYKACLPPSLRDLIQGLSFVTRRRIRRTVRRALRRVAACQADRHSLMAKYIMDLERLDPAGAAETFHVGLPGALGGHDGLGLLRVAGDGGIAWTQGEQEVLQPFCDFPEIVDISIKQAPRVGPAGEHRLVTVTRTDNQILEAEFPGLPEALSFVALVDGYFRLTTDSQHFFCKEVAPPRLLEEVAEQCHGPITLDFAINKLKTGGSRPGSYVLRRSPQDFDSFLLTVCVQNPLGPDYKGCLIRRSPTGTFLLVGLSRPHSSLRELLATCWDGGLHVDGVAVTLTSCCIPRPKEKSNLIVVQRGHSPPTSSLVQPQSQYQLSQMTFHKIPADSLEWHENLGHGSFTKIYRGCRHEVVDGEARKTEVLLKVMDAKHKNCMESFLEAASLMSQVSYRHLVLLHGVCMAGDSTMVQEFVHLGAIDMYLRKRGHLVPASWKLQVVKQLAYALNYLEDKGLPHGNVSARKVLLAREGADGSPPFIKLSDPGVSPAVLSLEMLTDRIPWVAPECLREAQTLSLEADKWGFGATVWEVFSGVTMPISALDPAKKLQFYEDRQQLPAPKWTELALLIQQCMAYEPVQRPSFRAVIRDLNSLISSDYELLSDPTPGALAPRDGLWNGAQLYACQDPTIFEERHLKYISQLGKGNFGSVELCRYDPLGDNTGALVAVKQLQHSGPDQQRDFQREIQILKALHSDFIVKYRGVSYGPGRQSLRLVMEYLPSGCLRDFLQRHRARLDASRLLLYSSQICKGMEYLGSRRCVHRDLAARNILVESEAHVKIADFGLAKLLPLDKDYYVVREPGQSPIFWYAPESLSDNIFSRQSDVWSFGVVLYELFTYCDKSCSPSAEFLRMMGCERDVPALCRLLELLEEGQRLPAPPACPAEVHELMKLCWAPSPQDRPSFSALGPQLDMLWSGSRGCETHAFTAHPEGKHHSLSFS
As to the kind of experiment: Test 1: inhibitory activity to JAK3 tyrosine kinase (ELISA). The class given is biochemical. The following applies: 25 μM ATP in substrate solution, 30° C. for 1 hour, n=2. How it is done:
Test 1: Test for inhibitory activity to JAK2 and JAK3 tyrosine kinase 1. […] The test material was dissolved in dimethylsulfoxide (DMSO) to be 10 mM, and further diluted with DMSO to be 100-fold concentrations for measurement (1000, 300, 100, 30, 10, 3, 1, 0.3, 0.1, 0.03, 0.01 μM). In addition, solutions diluted with an assay buffer up to 20 times were used as solutions of the test material. As a negative control, a solution of DMSO diluted 20 times with an assay buffer was used. […] 2. Measurement of the Activities of JAK2 and JAK3 Tyrosine Kinases The activity was determined by ELISA. […] The absorbance was measured by means of a micro-plate reader (BIO-RAD; Model 3550) at 450 nm. 3. Analysis of the Results of the Measurement The measured absorbance was subjected to a non-linear regression analysis by means of a SAS system (SAS Institute Inc.), and the concentration (IC50) of the test material which inhibited 50% of the activity of each tyrosine kinase was estimated.

The target of a further experiment is T2, JAK2 tyrosine kinase (Homo sapiens, UniProt O60674).
T2 construct: purchased Carnabioscience Co
T2 sequence (O60674 whole entry): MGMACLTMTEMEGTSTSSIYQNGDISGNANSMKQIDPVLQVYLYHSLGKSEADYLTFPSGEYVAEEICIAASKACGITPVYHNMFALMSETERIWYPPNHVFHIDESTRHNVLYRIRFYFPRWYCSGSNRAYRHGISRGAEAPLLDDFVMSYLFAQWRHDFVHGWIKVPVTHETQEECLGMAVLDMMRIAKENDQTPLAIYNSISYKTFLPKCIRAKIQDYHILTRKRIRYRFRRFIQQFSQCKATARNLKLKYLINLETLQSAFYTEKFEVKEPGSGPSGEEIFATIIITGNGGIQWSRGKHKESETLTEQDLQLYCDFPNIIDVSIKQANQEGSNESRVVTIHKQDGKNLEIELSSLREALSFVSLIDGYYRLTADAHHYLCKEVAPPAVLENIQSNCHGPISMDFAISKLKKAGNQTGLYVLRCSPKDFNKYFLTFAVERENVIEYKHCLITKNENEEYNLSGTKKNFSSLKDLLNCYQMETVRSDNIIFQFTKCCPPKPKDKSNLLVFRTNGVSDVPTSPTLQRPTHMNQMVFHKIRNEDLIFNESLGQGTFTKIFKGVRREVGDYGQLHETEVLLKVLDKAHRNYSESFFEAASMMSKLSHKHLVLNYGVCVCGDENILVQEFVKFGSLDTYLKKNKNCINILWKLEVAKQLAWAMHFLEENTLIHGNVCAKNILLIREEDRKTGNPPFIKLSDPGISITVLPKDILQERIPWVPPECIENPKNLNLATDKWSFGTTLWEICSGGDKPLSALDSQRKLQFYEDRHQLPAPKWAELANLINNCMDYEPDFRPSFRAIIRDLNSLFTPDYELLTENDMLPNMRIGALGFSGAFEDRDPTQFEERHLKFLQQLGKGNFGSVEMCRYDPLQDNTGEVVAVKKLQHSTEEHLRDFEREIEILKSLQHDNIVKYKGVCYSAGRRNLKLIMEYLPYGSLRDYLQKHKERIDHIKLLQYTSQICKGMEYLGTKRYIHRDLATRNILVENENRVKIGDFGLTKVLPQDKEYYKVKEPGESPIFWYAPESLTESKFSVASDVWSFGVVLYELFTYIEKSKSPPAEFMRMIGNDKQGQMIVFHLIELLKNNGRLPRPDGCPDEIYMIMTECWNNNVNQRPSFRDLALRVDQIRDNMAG
Nature of the experiment: Test 1: inhibitory activity to JAK2 tyrosine kinase (ELISA). The class given is biochemical. The following applies: 25 μM ATP in substrate solution, 30° C. for 1 hour, n=2. How it is done:
Test 1: Test for inhibitory activity to JAK2 and JAK3 tyrosine kinase 1. Preparation of Test Material
The test material was dissolved in dimethylsulfoxide (DMSO) to be 10 mM, and further diluted with DMSO to be 100-fold concentrations for measurement (1000, 300, 100, 30, 10, 3, 1, 0.3, 0.1, 0.03, 0.01 μM). In addition, solutions diluted with an assay buffer up to 20 times were used as solutions of the test material. As a negative control, a solution of DMSO diluted 20 times with an assay buffer was used. As the assay buffer, 15 mM Tris-Cl (pH 7.5), 0.01 v/v % Tween-20, and 1 mM dithiothreitol were used.
2. Measurement of the Activities of JAK2 and JAK3 Tyrosine Kinases
The activity was determined by ELISA. The solution of the test material (10 μl each; n=2) was placed in a streptavidine-coated 96 well plate (DELFIA Strip Plate 8×12 wells; Perkin Elmer), to which 20 μl each of substrate solution (625 nM biotin-labeled peptide substrate, 25 μM ATP, 25 mM MgCl2, 15 mM Tris-Cl (pH 7.5), 0.01 v/v % Tween-20, and 1 mM dithiothreitol), was added and stirred. Finally, 20 μl each of JAK2 tyrosine kinase (Carnabioscience Co.) (diluted to 0.75 nM with assay buffer) or JAK3 tyrosine kinase (Carnabioscience Co.) (diluted to 0.75 nM with assay buffer) was added, stirred and allowed to stand at 30° C. for 1 hour. The plate was washed 4 times with a washing buffer (50 mM Tris-Cl, pH 7.5, 150 mM NaCl, 0.02 v/v % Tween-20), and then a blocking buffer (0.1% Bovine Serum Albumin, 50 mM Tris-Cl, pH 7.5, 150 mM NaCl, 0.02 v/v % Tween-20)(150 μl each) was added for blocking at 30° C. for 30 minutes. Blocking buffer was removed, and there was added 100 μl each of horse radish peroxidase-labeled anti-phosphorylated tyrosin kinase antibody (BD Bioscience Co.) (diluted 10,000 times with blocking buffer). The plate was incubated at 30° C. for 30 minutes and then washed 4 times with a washing buffer, and 100 μl each of 3,3′,5,5′-tetramethylbenzidine (Sigma-Aldrich Co.) was added to develop color for 10 minutes. 0.1 M sulfuric acid (100 μl each) was added to stop the reaction. The absorbance was measured by means of a micro-plate reader (BIO-RAD; Model 3550) at 450 nm.
3. Analysis of the Results of the Measurement
The measured absorbance was subjected to a non-linear regression analysis by means of a SAS system (SAS Institute Inc.), and the concentration (IC50) of the test material which inhibited 50% of the activity of each tyrosine kinase was estimated.

Where a name gives a salt, the structure may show the parent alone.

For the compound `C[C@H](Nc1nc(Nc2cnccn2)cc(N2CC(C(=O)N3CCCCC3)C2)n1)c1ccc(F)cc1` [Example 195, (S)-(1-{2-[1-(4-Fluorophenyl)ethylamino]-6-(pyrazin-2-ylamino)pyrimidin-4-yl}azetidin-3-yl)(piperidin-1-yl)methanone], the IC50 against JAK3 tyrosine kinase is 50 nM; on JAK2 tyrosine kinase it was 1.2 nM.
As to `C[C@H](Nc1nc(Nc2cnccn2)cc(-c2cncs2)n1)c1ccc(F)cc1` [Example 49, (S)—N^2-[1-(4-Fluorophenyl)ethyl]-N^4-(pyrazin-2-yl)-6-(thiazol-5-yl)pyrimidine-2,4-diamine], the IC50 on JAK3 tyrosine kinase came to 170 nM; against JAK2 tyrosine kinase, 2.3 nM.
On to `CNC(=O)C1CN(c2cc(Nc3cnccn3)nc(N[C@@H](C)c3ccc(F)cc3)n2)C1` [Example 174], for which the half-maximal inhibitory concentration (IC50) on JAK3 tyrosine kinase stood at 47 nM; at JAK2 tyrosine kinase, 0.99 nM.
For `C[C@H](Nc1nc(NCc2ccncc2)cc(Nc2cnccn2)n1)c1ccc(F)cc1` [Example 108, (S)—N^2-[1-(4-Fluorophenyl)ethyl]-N^4-(pyrazin-2-yl)-N^6-(pyridin-4-ylmethyl)pyrimidine-2,4,6-triamine], the IC50 against JAK3 tyrosine kinase came to 56 nM; against JAK2 tyrosine kinase, 1.1 nM.
Regarding `C[C@H](Nc1nc(Nc2cnccn2)cc(-c2cncnc2)n1)c1ccc(F)cc1` [Example 52, (S)—N^2-[1-(4-Fluorophenyl)ethyl]-N^6-(pyrazin-2-yl)-4,5′-bipyrimidine-2,6-diamine], the IC50 turned out to be 160 nM at JAK3 tyrosine kinase and 2 nM on JAK2 tyrosine kinase.
With `C[C@H](Nc1nc(Nc2cnccn2)cc(-c2nn[nH]n2)n1)c1ccc(F)cc1` [Example 75, (S)—N^2-[1-(4-Fluorophenyl)ethyl]-N^4-(pyrazin-2-yl)-6-(2H-tetrazol-5-yl)pyrimidine-2,4-diamine], the figures for the IC50 against JAK3 tyrosine kinase and on JAK2 tyrosine kinase were 630 nM and 12 nM, respectively.
For the compound `C[C@H](Nc1cc(N2CC(O)(C3CC3)C2)cc(Nc2cnccn2)n1)c1ccc(F)cc1` [Example 203, (S)-3-Cyclopropyl-1-{2-[1-(4-fluorophenyl)ethylamino]-6-(pyrazin-2-ylamino)pyridin-4-yl}azetidin-3-ol hydrochloride], the IC50 against JAK3 tyrosine kinase was determined as 120 nM; against JAK2 tyrosine kinase it was 4.5 nM.
Taken in the same sequence, the figures for `COc1ccc(-c2cc(Nc3cnccn3)nc(N[C@@H](C)c3ccc(F)cc3)n2)cn1` [Example 23, (S)—N^2-[1-(4-Fluorophenyl)ethyl]-6-(6-methoxypyridin-3-yl)-N^4-(pyrazin-2-yl)pyrimidine-2,4-diamine hydrochloride] were 210 nM and 4.2 nM.
The corresponding values for `C[C@H](Nc1nc(Nc2cnccn2)cc(N2CCN(S(C)(=O)=O)CC2)n1)c1ccc(Cl)cc1` [Example 100, (S)—N^2-[1-(4-Chlorophenyl)ethyl]-6-[4-(methylsulfonyl)piperazin-1-yl]-N^4-(pyrazin-2-yl)pyrimidine-2,4-diamine hydrochloride] are 47 nM and 0.52 nM.
For `C[C@H](Nc1cc(N2CC(C)(O)C2)cc(Nc2cnccn2)n1)c1ccc(F)cc1` [Example 205, (S)-1-{2-[1-(4-Fluorophenyl)ethylamino]-6-(pyrazin-2-ylamino)pyridin-4-yl}-3-methylazetidin-3-ol hydrochloride], the IC50 on JAK3 tyrosine kinase stood at 170 nM; against JAK2 tyrosine kinase, 2.8 nM.
For `C[C@H](Nc1nc(Nc2cnccn2)cc(N2C[C@H](O)CC2=O)n1)c1ccc(F)cc1` [Example 67, (R)-1-{2-[(S)-1-(4-Fluorophenyl)ethylamino]-6-(pyrazin-2-ylamino)pyrimidin-4-yl}-4-hydroxypyrrolidin-2-one], the results for the IC50 on JAK3 tyrosine kinase and against JAK2 tyrosine kinase were 470 nM and 11 nM, respectively.
Taken in the same sequence, the figures for `C[C@H](Nc1nc(Nc2cnccn2)cc(N2CCC[C@@H]2CO)n1)c1ccc(F)cc1` [Example 70, ((R)-1-{2-[(S)-1-(4-Fluorophenyl)ethylamino]-6-(pyrazin-2-ylamino)pyrimidin-4-yl}pyrrolidin-2-yl)methanol hydrochloride] were 65 nM and 1.5 nM.
Regarding `COCCn1cc(-c2cc(Nc3cnccn3)nc(N[C@@H](C)c3ccc(F)cc3)c2)cn1` [Example 217, (S)—N^2-[1-(4-Fluorophenyl)ethyl]-4-[1-(2-methoxyethyl)-1H-pyrazol-4-yl]-N^6-(pyrazin-2-yl)pyridine-2,6-diamine], the IC50 on JAK3 tyrosine kinase is 36 nM; at JAK2 tyrosine kinase, 1.5 nM.
With `CC(C)n1cc(-c2cc(Nc3cnccn3)nc(N[C@@H](C)c3ccc(F)cc3)c2)cn1` [Example 37, (S)—N^2-[1-(4-Fluorophenyl)ethyl]-4-(1-isopropyl-1H-pyrazol-4-yl)-N^6-(pyrazin-2-yl)pyridine-2,6-diamine hydrochloride], the IC50 against JAK3 tyrosine kinase is 130 nM; against JAK2 tyrosine kinase, 3.2 nM.
Taken in the same sequence, the figures for `COC1(C)CN(c2cc(Nc3cnccn3)nc(N[C@@H](C)c3ccc(F)cc3)c2)C1` [Example 213, (S)—N^2-[1-(4-Fluorophenyl)ethyl]-4-(3-methoxy-3-methylazetidin-1-yl)-N^6-(pyrazin-2-yl)pyridine-2,6-diamine hydrochloride] were 130 nM and 3.2 nM.
In the case of `C[C@H](Nc1nc(NCc2ccco2)cc(Nc2cnccn2)n1)c1ccc(F)cc1` [Example 103, (S)—N^2-[1-(4-Fluorophenyl)ethyl]-N^4-(furan-2-ylmethyl)-N^6-(pyrazin-2-yl)pyrimidine-2,4,6-triamine hydrochloride], the IC50 at JAK3 tyrosine kinase worked out at 310 nM; on JAK2 tyrosine kinase, 4.1 nM.
In the case of `C[C@H](Nc1nc(Cl)cc(Nc2cnccn2)n1)c1ccc(F)cc1` [Example 9, (S)-6-Chloro-N^2-[1-(4-fluorophenyl)ethyl]-N^4-(pyrazin-2-yl)pyrimidine-2,4-diamine], the IC50 was determined as 360 nM against JAK3 tyrosine kinase and 16 nM against JAK2 tyrosine kinase.

For the origin of these results see patent US8586591B2, “Aminopyrazine derivative and medicine” (Nippon Shinyaku Co., Ltd., priority 2009, dated 2013).
